In brackets after ≈: the same amount, converted by molar mass. Residues, ends and D or L forms follow the SMILES beside them. *: point of attachment. βNA = c1ccc2cc(N*)ccc2c1
What was measured:
Type in all cases: functional
Citrobacter werkmanii [1] = assay: Antimicrobial activity against nalidixic acid-resistant Citrobacter werkmanii isolate CIT1 harboring gyrA Thr83Ile, parC Ser57Thr mutant gene and qnrB12 gene by broth macrodilution method in presence of 64 ug/ml Phe-Arg-beta-naphthylamide
Citrobacter werkmanii [2] = assay: Antimicrobial activity against nalidixic acid-resistant Citrobacter werkmanii isolate CIT1 harboring gyrA Thr83Ile, parC Ser57Thr mutant gene and qnrB12 gene by broth macrodilution method
Escherichia coli [3] = assay: Antimicrobial activity against Escherichia coli TOP10 harboring empty vector pCR-Blunt2-TOPO by broth macrodilution method in presence of 64 ug/ml Phe-Arg-beta-naphthylamide
Escherichia coli [4] = assay: Antimicrobial activity against Escherichia coli TOP10 harboring pCR-Blunt2-TOPO carrying qnrB12 gene of Citrobacter werkmanii isolate CIT3 by broth macrodilution method
Citrobacter werkmanii [5] = assay: Antimicrobial activity against Citrobacter werkmanii isolate CIT3 harboring parC Leu88Gln mutant and qnrB12 gene by broth macrodilution method
Escherichia coli [6] = assay: Antimicrobial activity against Escherichia coli TOP10 harboring empty vector pCR-Blunt2-TOPO by broth macrodilution method
Escherichia coli [7] = assay: Antimicrobial activity against Escherichia coli TOP10 harboring pCR-Blunt2-TOPO carrying qnrB12 gene of Citrobacter werkmanii isolate CIT3 by broth macrodilution method in presence of 64 ug/ml Phe-Arg-beta-naphthylamide
Escherichia coli [8] = assay: Antimicrobial activity against Escherichia coli TOP10 by broth macrodilution method
Escherichia coli [9] = assay: Antimicrobial activity against Escherichia coli TOP10 harboring pCR-Blunt2-TOPO carrying qnrB12 gene of Citrobacter werkmanii isolate CIT1 by broth macrodilution method
Citrobacter werkmanii [10] = assay: Antimicrobial activity against Citrobacter werkmanii isolate CIT2 harboring qnrB12 gene by broth macrodilution method in presence of 64 ug/ml Phe-Arg-beta-naphthylamide
Citrobacter werkmanii [11] = assay: Antimicrobial activity against Citrobacter werkmanii isolate CIT3 harboring parC Leu88Gln mutant gene and qnrB12 gene by broth macrodilution method in presence of 64 ug/ml Phe-Arg-beta-naphthylamide
Escherichia coli [12] = assay: Antimicrobial activity against Escherichia coli TOP10 harboring pCR-Blunt2-TOPO carrying qnrB12 gene of Citrobacter werkmanii isolate CIT2 by broth macrodilution method
Escherichia coli [13] = assay: Antimicrobial activity against Escherichia coli TOP10 harboring pCR-Blunt2-TOPO carrying qnrB12 gene of Citrobacter werkmanii isolate CIT1 by broth macrodilution method in presence of 64 ug/ml Phe-Arg-beta-naphthylamide
Escherichia coli [14] = assay: Antimicrobial activity against Escherichia coli TOP10 harboring pCR-Blunt2-TOPO carrying qnrB12 gene of Citrobacter werkmanii isolate CIT2 by broth macrodilution method in presence of 64 ug/ml Phe-Arg-beta-naphthylamide
Citrobacter werkmanii [15] = assay: Antimicrobial activity against Citrobacter werkmanii isolate CIT2 harboring qnrB12 gene by broth macrodilution method
Escherichia coli [16] = assay: Antimicrobial activity against Escherichia coli TOP10 by broth macrodilution method in presence of 64 ug/ml Phe-Arg-beta-naphthylamide

Structure (SMILES)	MIC (Citrobacter werkmanii [1]) [µg/mL]	MIC (Citrobacter werkmanii [2]) [µg/mL]	MIC (Escherichia coli [3]) [µg/mL]	MIC (Escherichia coli [4]) [µg/mL]	MIC (Citrobacter werkmanii [5]) [µg/mL]	MIC (Escherichia coli [6]) [µg/mL]	MIC (Escherichia coli [7]) [µg/mL]	MIC (Escherichia coli [8]) [µg/mL]	MIC (Escherichia coli [9]) [µg/mL]	MIC (Citrobacter werkmanii [10]) [µg/mL]	MIC (Citrobacter werkmanii [11]) [µg/mL]	MIC (Escherichia coli [12]) [µg/mL]	MIC (Escherichia coli [13]) [µg/mL]	MIC (Escherichia coli [14]) [µg/mL]	MIC (Citrobacter werkmanii [15]) [µg/mL]	MIC (Escherichia coli [16]) [µg/mL]
CCn1cc(C(=O)O)c(=O)c2ccc(C)nc21 [NALIDIXIC ACID]	16	> 256	0.25	8 (≈ 34.4 µM)	8 (≈ 34.4 µM)	2 (≈ 8.61 µM)	1	2 (≈ 8.61 µM)	8 (≈ 34.4 µM)	0.5	0.25	8 (≈ 34.4 µM)	1	1	8 (≈ 34.4 µM)	0.25
N=C(N)NCCC[C@H](NC(=O)[C@@H](N)Cc1ccccc1)C(=O)Nc1ccc2ccccc2c1 [PABETAN] (H-Phe-Arg-βNA)		> 256		> 256	256 (≈ 573 µM)	> 256		> 256	> 256			> 256			256 (≈ 573 µM)	
O=C(O)c1cn(C2CC2)c2cc(N3CCNCC3)c(F)cc2c1=O [CIPROFLOXACIN]	0.25	1 (≈ 3.02 µM)	0.00195	0.0625 (≈ 0.189 µM)	0.0625 (≈ 0.189 µM)	0.00195 (≈ 0.00589 µM)	0.0625	0.00195 (≈ 0.00589 µM)	0.0625 (≈ 0.189 µM)	0.0312	0.0312	0.0625 (≈ 0.189 µM)	0.0625	0.0625	0.5 (≈ 1.51 µM)	0.00195

Source: ChEMBL document CHEMBL1255237, “Novel variant of the qnrB gene, qnrB12, in Citrobacter werkmanii” (2008)
